# Laboratory results as given in article PMC9227536, “Prediction of Pharmacokinetics of IDP-73152 in Humans Using Physiologically-Based Pharmacokinetics” (Pharmaceutics, 2022).
# Key:
# the bacterial strains = experiment: In vitro minimum inhibitory concentration, preliminary screening; assay type: cell-based; conditions: preliminary screening study, against the bacterial strains
# [1] = tested on: penicillin-resistant Streptococcus pneumonia; conditions: infected mice, twice-a-day dosing; cited from earlier work
# [2] = Unbound fraction in plasma (rapid equilibrium dialysis), human; assay type: in vitro ADME; conditions: humans plasma, 0.3, 1, 3 μM, RED 5 h, read-out: fu,p
# Experimental: (§1) The unbound fractions of IDP-73152 in various matrices were measured according to the manufacturer’s instructions for the rapid equilibrium dialysis (RED) device (ThermoFisher Scientific, Waltham, MA, USA). Briefly, IDP-73152 was added to the plasma or the microsomal/hepatocyte incubation buffer from various species (i.e., mouse, rat, dog, and human for microsomal incubation; rat for hepatocyte incubation) to obtain final concentrations of the compound at 0.3, 1, and 3 μM. After the membrane insert was placed in the RED plate, the solution containing IDP-73152 was added (400 µL) to the sample chamber, and the dialysis buffer (600 μL) was added to the buffer chamber. The RED plate was sealed with parafilm and then incubated at 37 °C in the orbital shaker (Lab Companion, Daejeon, Korea) at 100 rpm for 5 h. After a 50 μL aliquot was aspirated from both the sample and buffer chambers, an equal volume of protein-free buffer or blank medium was replaced in the aspirated sample or buffer to render the matrices compositionally identical. The IDP-73152 concentration in the buffer/sample chambers (i.e., CBuffer Chamber and CSample Chamber) was determined by an assay. Thus, the fraction unbound was defined as:(2) % Fraction unbound=(CBuffer Chamber/CSample Chamber)×100%
# Stability in plasma, dog = assay type: in vitro ADME; conditions: dogs plasma
# Experimental: as §1, with “manufacturer's” for “manufacturer’s”, “μL)” for “µL)”, “After a 50 μL aliquot was aspirated from both the sample and buffer chambers, an equal volume of protein-free buffer or blank medium was replaced in the aspirated sample or buffer to render the matrices compositionally identical.” left out, “Chamber)×100% When necessary, the stability of IDP-73152 in the matrix was also determined at 5 h. […] Accordingly, the kinetics of IDP-73152 instability were determined in the rat blood at a final concentration of 0.3 μM. […]” for “Chamber)×100%”
compound,measurement,setting,value
CC(C)(C)[C@H](NC(=O)[C@H](CC1CCCC1)CN(O)C=O)C(=O)N1CCC(NCc2cc(F)c(F)cc2F)CC1 [IDP-73152],in vitro minimum inhibitory concentration values,the bacterial strains,"comparable to, or less than, those of linezolid and vancomycin"
same,ED50 (oral dose at which the survival rate was 50%),[1],3.0 mg/kg
same,fraction unbound at 5 h,[2],0.0744 ± 0.0019
same,percentage remaining in plasma at 5 h,"Stability in plasma, dog; 5 h, 37 °C",101 ± 6%
same,stability in plasma,"Stability in plasma, dog; preliminary study",stable
